The test system of one series is Anas platyrhynchos. The note with it: acute; oral; unspecified; mortality.
The next series relates to Apis mellifera. Particulars: acute; oral; unspecified; mortality.
A further series relates to Bibionidae. Particulars: chronic/long-term; duration: 28 days; development.
Another series relates to Canidae. The note with it: oral, Dog Other, hematological.
In the next series the test system is Colinus virginianus. Particulars: chronic.
In the next series the test system is Daphnia magna. Particulars: chronic/long-term; duration: 21 days; reproduction.
For a further series, the system named is Folsomia candida. Particulars: chronic/long-term.
A further series has as its system Oncorhynchus mykiss. Particulars: chronic/long-term; duration: 95 days; growth.
For another series, the system named is Oryctolagus sp. Particulars: reproduction developmental; hematological.
The next series relates to Typhlodromus pyri. In words: LR50; higher = less toxic. Particulars: not reported; mortality.

Bounds are passed on as bounds.

In general, NOAEL refers to the highest tested level that showed no adverse finding. As for `O=C(Nc1ccc(F)cc1)c1cccc(Oc2cccc(C(F)(F)F)c2)n1` [Picolinafen], the LD50 with Anas platyrhynchos is over 2250 mg/kg-day; in the series on Apis mellifera, over 200 µg/piece; in the series on Rattus norvegicus (acute, mortality), over 5000 mg/kg-day. The NOEC came out at 0.18 mg/L with Bibionidae; 0.007 mg/L in the series on Daphnia magna; 250 mg/kg with Folsomia candida; 0.0064 mg/L in the series with Oncorhynchus mykiss; 1.68 mg/kg with Tagia sp. (chronic/long-term, duration: 8 weeks). Besides, the NOAEL in the series with Canidae (chronic, duration: 1 years) came out at 1.4 mg/kg-day; in the series with Canidae (subchronic, duration: 90 days) it was 5.2 mg/kg-day; in the series with Oryctolagus sp., 5 mg/kg-day; in the series with Rattus norvegicus (chronic), 4 mg/kg-day. In the series on Colinus virginianus, the NOEL came to 59.5 mg/kg-day. The same molecule registered an LC50 in the series on Tagia sp. (acute, duration: 14 days, mortality) of over 500 mg/kg. In the series with Typhlodromus pyri, this molecule came in with an LR50 of over 100 g/ha.
